Data taken from US6515015B1, “Antidiabetic agents based on aryl and heteroarylacetic acids” (Merck & Co. Inc., priority 1996, dated 2003).

Target: T1, Human PPARγ2 (Homo sapiens, UniProt P37231)
T1 construct: The full length human cDNA for PPARγ2 and PPARδ were subcloned into the PGEX-2T and PGEX-KT; made in house; host or cells: E. coli (pGEX-2T vector)
T1 sequence (P37231 1-505): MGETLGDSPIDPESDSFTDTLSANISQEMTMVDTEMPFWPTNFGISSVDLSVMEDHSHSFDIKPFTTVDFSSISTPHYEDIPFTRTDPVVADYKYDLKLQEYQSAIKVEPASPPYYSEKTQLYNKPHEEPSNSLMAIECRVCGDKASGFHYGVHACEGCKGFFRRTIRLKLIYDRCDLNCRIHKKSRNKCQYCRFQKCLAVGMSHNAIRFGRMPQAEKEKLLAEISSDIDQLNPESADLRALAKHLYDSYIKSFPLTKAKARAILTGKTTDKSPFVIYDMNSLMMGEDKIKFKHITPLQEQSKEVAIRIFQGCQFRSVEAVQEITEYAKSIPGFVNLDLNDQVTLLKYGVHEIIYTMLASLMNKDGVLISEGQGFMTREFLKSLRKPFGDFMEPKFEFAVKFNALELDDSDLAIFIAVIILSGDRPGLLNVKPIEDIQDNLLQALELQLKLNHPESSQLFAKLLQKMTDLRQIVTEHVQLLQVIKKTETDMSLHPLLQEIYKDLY
Assay: [3H]AD-5075 displacement assay for PPARγ2
Type: binding
Conditions: gst-fusion human PPARγ2, charcoal separation, ~16 h at 4° C.
Source text: Compounds of the instant invention which are useful for the above discussed treatments can be identified and/or characterized by employing the PPAR δ, and γ binding assays. The assays are useful in predicting or quantitating in vivo effects having to do with the control or modulation of glucose, free fatty acid, triglyceride, insulin or cholesterol. To evaluate IC50 or EC50, values the compounds were titrated in the appropriate assay using different concentrations of the compound to be tested. To obtain the appropriate values (%Inhibition-IC50, or %Activation-EC50), the data resulting from the assays were then analyzed by determining the best fit of a 4 parameter function to the data using the Levenberg-Marquardt non-linear fitting algorithm in Kaleidagraph (Synergy Software, Reading, Pa.). The human nuclear receptor cDNA for PPARδ (hPPARδ) has been cloned from a human osteosarcoma cell cDNA library and is fully described in A. Schmidt et al., Molecular Endocrinology, 6:1634-1641 (1992), herein incorporated by reference in its entirety. See A. Elbrecht et al., Biochem. and Biophy. Res. Comm. 224:431-437 (1996) and T. Sher et al., Biochem. 32:5598-5604 (1993) for a description of the human nuclear receptor gene PPARγ and α.
Human PPARγ2 and PPARδ, independently, were prepared as gst-fusion proteins in E. coli. […]

- Kd: ~1 nM
SMILES: Cc1oc(-c2ccccc2)nc1C(O)COc1ccc(CC2SC(=O)NC2=O)cc1 (stereo not shown) [AD-5075]
